Results published in PMC10657444, “Design and evaluation of tadpole-like conformational antimicrobial peptides” (Communications Biology, 2023).
Values after ≈ are worked out from the molar mass of the structure shown. Values joined by “and” are separate entries in the source; they are usually repeats but may differ in a detail not shown here. Identical values can stand only once. Like-named read-outs stand apart in the source and are kept apart here. Non-standard residues stand in square brackets, D forms with d. Residues, ends and D or L forms follow the SMILES beside them.

Legend:
[1] = test system: MRSA USA 300; type: cell-based, Staphylococcus aureus
Experimental: (§1) The stability of peptides in different media was assessed using the MIC assay described above. Here, the stability of HT2 and RI-HT2 in serum, salt, and different pH were analyzed using methods previously described with some modifications. For serum stability, a solution of 10% or 20% fetal bovine serum (FBS) was made by diluting fetal bovine serum with phosphate buffer saline (PBS). HT2 and RI-HT2 were added for a final concentration of 160 µg/mL of peptide in the FBS solution, and incubation 2 h. Suspension containing no peptide was considered the negative control. The MIC of HT2 and RI-HT2 against MRSA USA 300 and K. pneumoniae ATCC 700603 were measured. For the acid stability assays, the peptides were incubated with different pH values of PBS (pH = 5.5 or 6.4) at 37 °C. These peptide mixtures were then serially diluted in a 96-well plate for the evaluation of antimicrobial activity against bacterial strains. Similarly, for salt stability, the peptides were assessed for their antimicrobial activity against MRSA USA 300 and K. pneumoniae ATCC 700603 in the presence of 150 mM NaCl.

[2] = test system: K. pneumoniae ATCC 700603; type: cell-based, Klebsiella pneumoniae
Experimental: as §1

[3] = test system: MRSA USA 300; assay: Membrane depolarization assay, DiSC3(5); type: cell-based, Staphylococcus aureus
Experimental: MRSA USA 300 and K. pneumoniae ATCC 700603 were inoculated into 5 mL of LB and shaken at 37°C and 225 rpm to OD600 ≈ 0.5 (i.e., mid-logarithmic phase). Bacteria were collected by centrifugation at 8000 rpm for 5 min, and washed twice with assay buffer (5 mM HEPES, 20 mM glucose, 10 mM KCl, pH 7.2). Bacteria were resuspended in the assay buffer to OD595 ≈ 0.1. DiSC3(5) was added to the cells at final concentration of 0.3 µM, wrapped with aluminum foil, and incubated at 37°C, until a stable fluorescence was observed. Two microliter of compound or DMSO were transferred into 96-well black walled polystyrene plates, to which was added 98 µL per well of the dye-saturated bacterial cells to initiate the reaction. The final concentration of HT2 and RI-HT2 were 1 ×, 2 ×, 4 × and 8 × MIC. Plates were immediately read on an Envison at λex = 622 nm/ λem = 670 nm with a kinetic program (reading every 1 min for 10 min) until the maximal intensity achieved was observed.

[4] = test system: MRSA USA 300; assay: Membrane permeability, SYTOX Green; type: cell-based, Staphylococcus aureus
Experimental: (§2) Fluorescent probe SYTOX^TM Green (Invitrogen/ Life Technologies, S7020) was used to analyze the effect of HT2 and RI-HT2 on membrane permeability of MRSA USA 300 and K. pneumoniae ATCC 700603 as described elsewhere. SYTOX^TM Green is a DNA binding dye that is fluorescent when bound to nucleic acids and only enters cells with compromised plasma membranes. MRSA USA 300 and K. pneumoniae ATCC 700603 were cultured in LB broth to mid log phase at 37 °C and washed with PBS and resuspended (OD595 ≈ 0.1) in the same buffer. SYTOX^TM Green was added into the cell suspension with a final concentration of 5 μM and being kept in dark for 20 min. 98 µL pre-treated cell suspension was transferred into wells of 96-well glass black plates. Then, 2 µL of compound or DMSO were added to initiate the reaction. The final concentrations of HT2 and RI-HT2 were 1 ×, 2 ×, 4 × and 8 × MIC. Fluorescence strength was measured with excitation/emission wavelength of 485/528 nm every 5 min for 60 min.

[5] = test system: K. pneumoniae ATCC 700603; assay: Membrane permeability, SYTOX Green; type: cell-based, Klebsiella pneumoniae
Experimental: as §2

For `CC[C@@H](C)[C@@H](NC(=O)[C@@H](Cc1ccccc1)NC(=O)[C@@H](Cc1ccccc1)NC(=O)[C@@H](Cc1ccccc1)NC(=O)[C@H](N)Cc1ccccc1)C(=O)N[C@H](CCCNC(=N)N)C(=O)N[C@H](CCCNC(=N)N)C(=O)N[C@H](CC(C)C)C(=O)N[C@H](Cc1ccccc1)C(=O)N[C@H](CCCNC(=N)N)C(N)=O` [RI-HT2] (H-[dF][dF][dF][dF][dI][dR][dR][dL][dF][dR]-NH2; N-terminus assumed), the “MIC against MRSA USA 300” value ([1]; USA 300) was 3.13 µM (≈ 4.53 µg/mL), the “MIC against MRSA USA 300” value ([1]; USA 300, pH 5.5) was 3.13 µM (≈ 4.53 µg/mL) and the “MIC against MRSA USA 300” value ([1]; USA 300, pH 6.4) was 3.13 µM (≈ 4.53 µg/mL). For the same compound, the “MIC against K. pneumoniae ATCC 700603” value ([2]; 150 mM NaCl) was 12.5 µM (≈ 18.1 µg/mL), the “MIC against K. pneumoniae ATCC 700603” value ([2]; ATCC 700603) was >100 µM and the “MIC against K. pneumoniae ATCC 700603” value ([2]; Normal medium) was 6.25 µM (≈ 9.05 µg/mL). The “MIC against K. pneumoniae ATCC 700603” value ([2]; pH 5.5) was 12.5 µM (≈ 18.1 µg/mL), the “MIC against K. pneumoniae ATCC 700603” value ([2]; pH 6.4) was 12.5 µM (≈ 18.1 µg/mL) and the “concentration at which DiSC3(5) fluorescence intensity changed significantly” value [3] was 8 × MIC. The Fluorescence intensity ([4]; 2 × MIC, time 0 min) was 1131 and 1217 and 1235, the Fluorescence intensity ([4]; 2 × MIC, time 5 min) was 20197 and 21230 and 20865 and the Fluorescence intensity ([4]; 2 × MIC, time 10 min) was 25460 and 25912 and 25261. The Fluorescence intensity ([4]; 2 × MIC, time 15 min) was 28346 and 28832 and 27920, the Fluorescence intensity ([4]; 2 × MIC, time 20 min) was 30460 and 31033 and 29642 and the Fluorescence intensity ([4]; 2 × MIC, time 25 min) was 31855 and 32475 and 30920. For the same compound, the Fluorescence intensity ([4]; 2 × MIC, time 30 min) was 32738 and 33363 and 31902, the Fluorescence intensity ([4]; 2 × MIC, time 35 min) was 33433 and 34141 and 32365 and the Fluorescence intensity ([4]; 4 × MIC, time 0 min) was 1186 and 1404 and 1281. The Fluorescence intensity ([4]; 4 × MIC, time 5 min) was 40226 and 40219 and 41612, the Fluorescence intensity ([4]; 4 × MIC, time 10 min) was 48704 and 48472 and 50316 and the Fluorescence intensity ([4]; 4 × MIC, time 15 min) was 53321 and 53163 and 55112. For the same compound, the Fluorescence intensity ([4]; 4 × MIC, time 20 min) was 56328 and 55931 and 58102, the Fluorescence intensity ([4]; 4 × MIC, time 25 min) was 58334 and 57993 and 60104 and the Fluorescence intensity ([4]; 4 × MIC, time 30 min) was 59686 and 59179 and 61418. For the same compound, the Fluorescence intensity ([4]; 4 × MIC, time 35 min) was 60470 and 60307 and 62172, the Fluorescence intensity ([4]; 8 × MIC, time 0 min) was 1486 and 1674 and 1277 and the Fluorescence intensity ([4]; 8 × MIC, time 5 min) was 46924 and 49356 and 49374. For the same compound, the Fluorescence intensity ([4]; 8 × MIC, time 10 min) was 54383 and 56666 and 56984, the Fluorescence intensity ([4]; 8 × MIC, time 15 min) was 57832 and 59952 and 60652 and the Fluorescence intensity ([4]; 8 × MIC, time 20 min) was 59829 and 61957 and 62485. For the same compound, the Fluorescence intensity ([4]; 8 × MIC, time 25 min) was 61022 and 63005 and 63531, the Fluorescence intensity ([4]; 8 × MIC, time 30 min) was 61916 and 63588 and 64175 and the Fluorescence intensity ([4]; 8 × MIC, time 35 min) was 62425 and 64473 and 64696. The Fluorescence intensity ([4]; 8 × MIC, time 40 min) was 62708, the Fluorescence intensity ([4]; MIC, time 0 min) was 1304 and 1201 and 1387 and the Fluorescence intensity ([4]; MIC, time 5 min) was 12522 and 12645 and 12185. For the same compound, the Fluorescence intensity ([4]; MIC, time 10 min) was 14676 and 14962 and 14128, the Fluorescence intensity ([4]; MIC, time 15 min) was 16119 and 16290 and 15431 and the Fluorescence intensity ([4]; MIC, time 20 min) was 16841 and 16805 and 16042. The Fluorescence intensity ([4]; MIC, time 25 min) was 17216 and 17215 and 16315, the Fluorescence intensity ([4]; MIC, time 30 min) was 17367 and 17359 and 16618 and the Fluorescence intensity ([4]; MIC, time 35 min) was 17590 and 17525 and 16584. For the same compound, the Fluorescence intensity ([4]; MIC, time 40 min) was 17600 and 17633 and 16680, the “time to maximum SYTOX Green fluorescence intensity” value ([4]; different concentrations) was ≤ 15 min and the Fluorescence intensity ([5]; 2 × MIC, time 0 min) was 1284 and 1283 and 1287. For the same compound, the Fluorescence intensity ([5]; 2 × MIC, time 5 min) was 3609 and 3355 and 3304, the Fluorescence intensity ([5]; 2 × MIC, time 10 min) was 8683 and 7973 and 7881 and the Fluorescence intensity ([5]; 2 × MIC, time 15 min) was 14691 and 13649 and 13959. The Fluorescence intensity ([5]; 2 × MIC, time 20 min) was 20043 and 18959 and 19659, the Fluorescence intensity ([5]; 2 × MIC, time 25 min) was 24616 and 23653 and 24172 and the Fluorescence intensity ([5]; 2 × MIC, time 30 min) was 28652 and 27362 and 28393. For the same compound, the Fluorescence intensity ([5]; 2 × MIC, time 35 min) was 31775 and 30780 and 31899, the Fluorescence intensity ([5]; 4 × MIC, time 0 min) was 1309 and 1246 and 1149 and the Fluorescence intensity ([5]; 4 × MIC, time 5 min) was 36231 and 38899 and 38058. For the same compound, the Fluorescence intensity ([5]; 4 × MIC, time 10 min) was 55462 and 53189 and 56098, the Fluorescence intensity ([5]; 4 × MIC, time 15 min) was 60865 and 61985 and 61514 and the Fluorescence intensity ([5]; 4 × MIC, time 20 min) was 61161 and 60954 and 60896. For the same compound, the Fluorescence intensity ([5]; 4 × MIC, time 25 min) was 61613 and 62061 and 61850, the Fluorescence intensity ([5]; 4 × MIC, time 30 min) was 62160 and 62706 and 62610 and the Fluorescence intensity ([5]; 4 × MIC, time 35 min) was 62714 and 61385 and 61471. For the same compound, the Fluorescence intensity ([5]; 8 × MIC, time 0 min) was 1294 and 1162 and 1248, the Fluorescence intensity ([5]; 8 × MIC, time 5 min) was 46731 and 44912 and 46760 and the Fluorescence intensity ([5]; 8 × MIC, time 10 min) was 54425 and 53299 and 56314. The Fluorescence intensity ([5]; 8 × MIC, time 15 min) was 62319 and 60472 and 61594, the Fluorescence intensity ([5]; 8 × MIC, time 20 min) was 64747 and 64976 and 65277 and the Fluorescence intensity ([5]; 8 × MIC, time 25 min) was 65628 and 65784 and 65550. For the same compound, the Fluorescence intensity ([5]; 8 × MIC, time 30 min) was 65623 and 66146 and 65510, the Fluorescence intensity ([5]; 8 × MIC, time 35 min) was 66248 and 66493 and 66011 and the Fluorescence intensity ([5]; 8 × MIC, time 40 min) was 66880. For the same compound, the Fluorescence intensity ([5]; MIC, time 0 min) was 1004 and 1023 and 1031, the Fluorescence intensity ([5]; MIC, time 5 min) was 2234 and 2276 and 2181 and the Fluorescence intensity ([5]; MIC, time 10 min) was 3718 and 3745 and 3579. The Fluorescence intensity ([5]; MIC, time 15 min) was 5602 and 5647 and 5393, the Fluorescence intensity ([5]; MIC, time 20 min) was 7978 and 7923 and 7560 and the Fluorescence intensity ([5]; MIC, time 25 min) was 10663 and 10527 and 10076. The Fluorescence intensity ([5]; MIC, time 30 min) was 13390 and 13373 and 12886, the Fluorescence intensity ([5]; MIC, time 35 min) was 16041 and 16009 and 15623 and the Fluorescence intensity ([5]; MIC, time 40 min) was 18514 and 18484 and 18179. The “time to highest SYTOX Green fluorescence intensity” value ([5]; dose-dependent) was ≤ 40 min.
